# According to article PMC6356299, “Design and Synthesis of a Chitodisaccharide-Based Affinity Resin for Chitosanases Purification” (Marine Drugs, 2019):
# Molecular target: T1, CsnOU01 (GH family 46 chitosanase) (Microbacterium sp. OU01, UniProt A7KBW5)
# T1 construct: about 28 kDa
# T1 sequence (A7KBW5 26-266): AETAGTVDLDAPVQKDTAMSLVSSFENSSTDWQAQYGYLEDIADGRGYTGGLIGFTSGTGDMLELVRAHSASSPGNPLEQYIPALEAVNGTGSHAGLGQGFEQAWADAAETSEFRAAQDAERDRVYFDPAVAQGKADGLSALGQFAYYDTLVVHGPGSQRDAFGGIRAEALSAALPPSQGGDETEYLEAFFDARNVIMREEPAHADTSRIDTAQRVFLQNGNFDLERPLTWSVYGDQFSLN
# Test: equilibrium adsorption to ligand-coupled Sepharose 6B, Scatchard analysis
# Assay type: binding
# Conditions: compound immobilised on Sepharose 6B via cyanuric chloride spacer (not the free sugar); Kd in mass concentration of enzyme; 20 mM Tris-HCl, pH 8.0
# Source text: equilibrium adsorption to ligand-coupled Sepharose 6B, Scatchard analysis on CsnOU01 (GH family 46 chitosanase)
row,Molecule,Kd
1,"N[C@H]1[C@H](O[C@H]2[C@H](O)[C@@H](N)C(O)O[C@@H]2CO)O[C@H](CO)[C@@H](O)[C@@H]1O (stereo partly drawn) [CHDS, chitodisaccharide]",16.4 µg/mL
2,glucosamine,88.5 µg/mL
3,chitotrisaccharide [CHTS],20.7 µg/mL
